According to publication PMC9321043, “Synthesis, Structure–Activity Relationships, and Parasitological Profiling of Brussonol Derivatives as New Plasmodium falciparum Inhibitors” (Pharmaceuticals, 2022):

Legend:
[1] = tested on: P. falciparum TM90C6B strain; experiment: Resistance assessment, TM90C6B strain; assay type: cell-based; details: Plasmodium falciparum
[2] = tested on: P. falciparum (3D7 strain); experiment: In vitro antiplasmodial activity, P. falciparum blood-stage parasites, SYBR Green I; assay type: cell-based, Plasmodium falciparum; details: Plasmodium falciparum, 3D7, 3D7 strain, Table 2 strain panel; read-out: IC50
Experimental: The P. falciparum strains were cultivated in human blood cells (hRBC) O^+, while P. knowlesi was cultivated in rhesus red blood cells (rRBC) as described. P. falciparum complete RPMI (consisting of RPMI-1640, supplemented with 0.2% NaHCO3, 25 mM HEPES (pH 7.4), 11 mM D-glucose, 10 mg/L hypoxanthine, 25 mg/L gentamicin, and 0.5% (m/v) AlbuMAX II). The parasitemias of these cultures were maintained below 10% with 2.5% hematocrit. P. knowlesi complete RPMI (consisting of RPMI-1640 supplemented with 25 mM HEPES, […] hypoxanthine, 0.26% NaHCO3, 10 mg/L gentamicin, and 1% Albumax II). This culture was maintained with RBCs up to 5% hematocrit. The culture medium was changed daily, and all cultures were maintained under a 90% N2/5% CO2/5% O2 gas mixture at 37 °C. All compounds were purchased from Sigma-Aldrich (Cotia, Brazil).
The antiplasmodial activity of brussonol and derivatives was evaluated against P. falciparum blood parasites 3D7(chloroquine-sensitive). The parasites were synchronized through sterile 5% (m/v) D-sorbitol treatment over 10 min at 37 °C for the enrichment of ring stages. Centrifugation 600× g over 5 min was used to pellet the cultures. The parasitemia was determined by microscope analysis of thin blood smears stained with Giemsa 10% (v/v) after fixation with methanol. The initial parasitemia was calculated for 1000 red blood cells (RBCs), and cultures were diluted to 0.5% parasitemia and 2% hematocrit by the addition of the appropriate volumes of blood and medium. A total of 180 µL aliquots of parasites were distributed into 96-well plates followed by the addition of 20 µL of previously prepared aliquots of ten-fold concentrated compounds, the range of concentrations tested was 10–1.53 µM. Negative and positive control wells, which correspond to non-parasitized erythrocytes and parasite cultures in the absence of compounds, were set in parallel. The DMSO concentration was maintained below 0.05% (v/v) for all compounds except for brussonol, which was 0.5%. The plates were incubated for 72 h at 37 °C in a humidified incubator with a gas mixture of 90% N2, 5% O2, and 5% CO2. Each test was performed in duplicates, and the results were compared with the control cultures. Once completed incubation, the culture medium was removed, and the cells were resuspended in 100 µL PBS (116 mM NaCl, 10 mM NaH2PO4, 3 mM KH2PO4) and lysed with 100 µL lysis buffer (20 mM Tris base, 5 mM EDTA, 0.0008% (v/v) Triton X-100, 0.008% (m/v) saponin, pH 8.0) containing 0.002% (v/v) SYBR Green I. Plates were incubated for 30 min at room temperature, and a SpectraMAX Gemini EM plate reader (Molecular Devices Corp., Sunnyvale, CA) was used to determine the fluorescence corresponding to parasitic density (excitation at 485 nm, emission at 535 nm). The half-maximal inhibitory concentration (IC50^Pf) was determined by non-linear regression analysis of the resulting concentration–response curve using the software GraphPad Prism version 8.0.1 for Windows, GraphPad Software, San Diego, California USA, www.graphpad.com, accessed on 3 March 2022”.

[3] = tested on: hemozoin formation; experiment: Hemozoin formation inhibition assay; assay type: biochemical; details: hemin 25 µM, pH 4.8, 4 h, one experiment in triplicate
Experimental: 2. Hemozoin Formation Inhibition Assay
The hemozoin formation inhibition assay was performed as described previously.12 Briefly, serial 1:3 dilutions, in a 96‐well plate, wit h brussonol were made in a final volume of 20 μL in a concentration 10 times higher than the final concentration of the assay. Secondly, 90 μ L of freshly prepared hemin (at a final concentration of 25 μM) solution in 1M NaOAc/HOAc buffer pH 4.8 were added followed by addition of 90 μ L of 5.4 mg/L Tween 20 solution freshly prepared. The plates were let to stand for 4 hours at 37 °C followed by resuspension with multichannel pippete and read at 415 and 630 nm using a SpectraMAX Plus 384 plate reader (Molecular Devices Corp., Sunnyvale, CA).
Due to the absence of enough compound, this experiment wa s performed only once, but with internal triplicate. Chloroquine (CQ) and pyrimethamine (PYR) were used as positive and negative control of inhibition, respectively.
Inhibition (%) = 100 – 100 x [(Aco ntro l – Asample) / (Acontrol - Amin)] Acontrol is the difference of the absorbance at 415 and 630 nm of the negative control (Hemin +, Tween 20 ‐, Compound ‐); Amin is the difference of the absorbance at 415 and 630 nm of the positive control (Hemin +, Tween 20 +, Compound ‐ ); Asample is the difference of the absorbance at 415 and 630 nm of the sample. The hemozoin formation inhibition assay was performed to evaluate if brussonol act inhibiting hemozoin formation in P. falciparum. CQ, which is a well‐known inhibitor of hemozoin […]
Figure S1. Hemozoin formation inhibition assay. Different concentrations of CQ (black triangles), PYR (red squares) and brussonol (blue circles) were incubated with heme in triplicates. Th e absorbance was recorded at 415/630 nm to determine the hemozoin formation inhibition. […]

[4] = tested on: P. falciparum Dd2 strain; experiment: Resistance assessment, Dd2 strain; assay type: cell-based; details: Plasmodium falciparum
[5] = tested on: P. falciparum; experiment: Speed-of-action assay; assay type: cell-based, Plasmodium falciparum; details: for speed of action: IC50 compared after 24, 48 and 72 h of drug exposure; for time of parasite death (morphological development, pyknotic nuclei): highest concentration evaluated, Giemsa smears at 0, 24, 48, 72 h
Experimental: The speed-of-action assay assesses the inhibitory activity of the tested compounds after 24, 48, and 72 h of drug exposure. […] Moreover, to confirm the speed-of-action, the morphological development of the parasite in parallel with the IC50 assessment was verified. The parasites in the negative control wells developed according to the expected timeline (Figure 5a). […] Brussonol caused parasite death within the first 24 h of incubation as observed for artesunate (Figure 5a).
In this method, three 96-well plates were prepared by adding 180 µL of the parasite’s inoculum with 0.5% parasitemia and 2% hematocrit. A serial dilution of the compounds was added to each plate; the starting concentration for brussonol was 6× IC50, while for artesunate and pyrimethamine (fast- and slow-acting controls, respectively) were 10× IC50. In addition, a positive and negative control, which corresponded to parasite cultures with no addition of inhibitor and non-parasitized erythrocytes, respectively, were used for the parasite’s control growth. Each plate was treated for a different period (24, 48, or 72 h), and the first two plates were washed twice with fresh medium to remove the inhibitor, followed by incubation of 48 and 24 h, respectively. […] A statistical analysis using a one-way ANOVA test was done to compare each time point using GraphPad Prism version 8.0.1 for Windows, GraphPad Software, San Diego, California USA, www.graphpad.com, accessed on 1 February 2022. In parallel, the morphological development of the parasite under the compounds’ pressure was assessed by adding the compounds tested at the highest concentration evaluated. Blood smears of each well were made and stained at time points 0, 24, 48, and 72 h.

[6] = tested on: P. falciparum K1 strain; experiment: Resistance assessment, K1 strain; assay type: cell-based; details: Plasmodium falciparum
[7] = tested on: P. falciparum 3D7^r_MMV848 strain; experiment: Resistance assessment, 3D7r-MMV848 strain; assay type: cell-based; details: Plasmodium falciparum

O=C1C(O)=C([C@H]2CC[C@H](c3ccc(Cl)cc3)CC2)C(=O)c2ccccc21 [atovaquone, reference compound] gave an IC50 [1] of 3000 ± 1000 nM and an IC50 [2] of 0.7 ± 0.3 nM.

For CCc1nc(N)nc(N)c1-c1ccc(Cl)cc1 [pyrimethamine], the “hemozoin formation inhibition (in words)” value [3] was “no inhibition profile up to 1.4 mM”, the IC50 [4] was over 10000 nM and the speed of action [5] was “slow-acting inhibitor”. For the same molecule, the “time of parasite death (morphological development, pyknotic nuclei)” value [5] was “at the 48 and 72 h time points”, the IC50 [2] was 60 ± 10 nM and the IC50 [6] was over 10000 nM.

In the case of C[C@H]1[C@H](OC(=O)CCC(=O)O)O[C@@H]2O[C@@]3(C)CC[C@H]4[C@H](C)CC[C@@H]1[C@@]24OO3 [artesunate], the IC50 [1] is reported as 6 ± 2 nM, the IC50 [4] is reported as 11 ± 8 nM and the speed of action [5] is reported as “fast-acting inhibitor”. The “time of parasite death (morphological development, pyknotic nuclei)” value [5] was at most 24 h, the IC50 [2] was 8 ± 4 nM and the IC50 [7] was 13 ± 8 nM. The IC50 [6] was 7 ± 3 nM.
